Results from US6656911B2, “Serine protease inhibitors” (Cortech, Inc., priority 1994, dated 2003).

Molecular target: T1, elastase derived from human sputum (HSE) (Homo sapiens, UniProt P08246)
T1 construct: prepared from commercially available HSE (875 U/mg protein, SE-563, Elastin Product Co., Inc., Missouri, USA); purchased Elastin Product Co., Inc., Missouri, USA SE-563; host or cells: human sputum (natural enzyme)
T1 sequence (P08246 30-247 limits assumed): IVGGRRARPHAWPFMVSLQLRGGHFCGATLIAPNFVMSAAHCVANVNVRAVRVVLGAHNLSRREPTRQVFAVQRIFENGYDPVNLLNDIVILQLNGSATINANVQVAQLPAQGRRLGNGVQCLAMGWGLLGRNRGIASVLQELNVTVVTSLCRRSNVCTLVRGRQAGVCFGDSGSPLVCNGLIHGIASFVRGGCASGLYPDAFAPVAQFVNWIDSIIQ
Assay: In vitro inhibition of elastase (ONO-PO series)
Type: biochemical
Details: substrate N-methoxysuccinyl-Ala-Ala-Pro-Val-p-nitroaniline, 37° C., pH 8.0, IC50 converted to Ki by Dixson plot

| SMILES | Ki |
| --- | --- |
| CC(C)[C@H](NC(=O)Cn1c(-c2cccnc2)ncc(N)c1=O)C(=O)c1nnc(C(C)(C)c2ccccc2)o1 [ONO-PO-715, 2-[5-Amino-6-oxo-2-(3-pyridyl)-1,6-dihydro-1-pyrimidinyl]-N-[1-(2-[5-(α,α-dimethylbenzyl)-1,3,4-oxadiazolyl]carbonyl)-2-(S)-methylpropyl]acetamide] | 0.00354 µM |
| CC(C)[C@H](NC(=O)Cn1c(-c2ccc(F)cc2)ncc(NC(=O)OCc2ccccc2)c1=O)C(=O)c1nnc(-c2ccccc2)o1 [ONO-PO-697, 2-[5-(Benzyloxycarbonyl)amino-6-oxo-2-(4-fluorophenyl)-1,6-dihydro-1-pyrimidinyl]-N-[1-(2-[5-phenyl-1,3,4-oxadiazolyl]carbonyl)-2-(S)-methylpropyl]acetamide] | 0.0273 µM |
| CC(C)[C@H](NC(=O)[C@@H]1CCCN1C(=O)[C@@H](NS(C)(=O)=O)C(C)C)C(=O)c1nnc(C(C)(C)C)o1 [ONO-PO-713] | 0.012 µM |
| CC(C)[C@H](NC(=O)Cn1c(-c2cccnc2)ncc(N)c1=O)C(=O)c1nnc(C(C)(C)C)o1 [ONO-PO-712, 2-[5-Amino-6-oxo-2-(3-pyridyl)-1,6-dihydro-1-pyrimidinyl]-N-[1-(2-[5-tert-butyl-1,3,4-oxadiazolyl]carbonyl)-2-(S)-methylpropyl]acetamide] | 0.0166 µM |
| Cc1nnc(C(=O)[C@@H](NC(=O)Cn2c(-c3ccc(F)cc3)ncc(N)c2=O)C(C)C)o1 [ONO-PO-704, 2-[5-Amino-6-oxo-2-(4-fluorophenyl)-1,6-dihydro-1-pyrimidinyl]-N-[1-(2-[5-methyl-1,3,4-oxadiazolyl]carbonyl)-2-(S)-methylpropyl]acetamide] | 0.014 µM |
| CC(C)[C@H](NC(=O)Cn1c(-c2ccc(F)cc2)ncc(NC(=O)OCc2ccccc2)c1=O)C(=O)c1nnc(C(C)(C)c2ccccc2)o1 [ONO-PO-690, 2-[5-(Benzyloxycarbonyl)amino-6-oxo-2-(4-fluorophenyl)-1,6-dihydro-1-pyrimidinyl]-N-[1-(2-[5-(α,α-dimethylbenzyl)-1,3,4-oxadiazolyl]carbonyl)-2-(S)-methylpropyl]acetamide] | 0.0783 µM |
| CC(C)[C@H](NC(=O)Cn1c(-c2ccccc2)nccc1=O)C(=O)c1nnc(C(C)(C)C)o1 [ONO-PO-730, 2-[6-Oxo-2-phenyl-1,6-dihydro-1-pyrimidinyl]-N-[1-(2-[5-tert-butyl-1,3,4-oxadiazolyl]carbonyl)-2-(S)-methylpropyl]acetamide] | 0.0235 µM |
| Cc1cccc(Cc2nnc(C(=O)[C@@H](NC(=O)Cn3c(-c4ccc(F)cc4)ncc(NS(C)(=O)=O)c3=O)C(C)C)o2)c1 [ONO-PO-702, 2-[5-(Methylsulfonyl)amino-6-oxo-2-(4-fluorophenyl)-1,6-dihydro-1-pyrimidinyl]-N-[1-(2-[5-(3-methylbenzyl)-1,3,4-oxadiazolyl]carbonyl)-2-(S)-methylpropyl]acetamide] | 0.00178 µM |
| CC(C)C(NC(=O)Cn1c(-c2ccccc2)nccc1=O)C(=O)c1nnc(C(C)(C)C)o1 (racemic) [ONO-PO-737, 2-[6-Oxo-2-phenyl)-1,6-dihydro-1-pyrimidinyl]-N-[1-(2-[5-tert-butyl-1,3,4-oxadiazolyl]carbonyl)-2-(R,S)-methylpropyl]acetamide] | 0.0363 µM |
| CC(C)[C@H](NC(=O)Cn1c(-c2ccc(F)cc2)nccc1=O)C(=O)c1nnc(C(C)(C)c2ccccc2)o1 [ONO-PO-722, 2-[6-Oxo-2-(4-fluorophenyl)-1,6-dihydro-1-pyrimidinyl]-N-[1-(2-[5-(α,α-dimethylbenzyl)-1,3,4-oxadiazolyl]carbonyl)-2-(S)-methylpropyl]acetamide] | 0.00335 µM |
| COc1ccc(-c2nnc(C(=O)[C@@H](NC(=O)Cn3c(-c4ccc(F)cc4)ncc(N)c3=O)C(C)C)o2)cc1 [ONO-PO-699, 2-[5-Amino-6-oxo-2-(4-fluorophenyl)-1,6-dihydro-1-pyrimidinyl]-N-[1-(2-[5-(4-methoxyphenyl)-1,3,4-oxadiazolyl]carbonyl)-2-(S)-methylpropyl]acetamide] | 0.0212 µM |
| CC(C)[C@H](NC(=O)Cn1c(-c2ccc(F)cc2)ncc(N)c1=O)C(=O)c1nnc(C(C)(C)c2ccc(O)c(O)c2)o1 [ONO-PO-701, 2-[5-Amino-6-oxo-2-(4-fluorophenyl)-1,6-dihydro-1-pyrimidinyl]-N-[1-(2-[5-(α,α-dimethyl-3,4-dihydroxybenzyl)-1,3,4-oxadiazolyl]carbonyl)-2-(S)-methylpropyl]acetamide] | 0.00298 µM |
| CC(C)[C@H](NC(=O)Cn1c(-c2ccc(F)cc2)ncc(N)c1=O)C(=O)c1nnc(-c2ccccc2)o1 [ONO-PO-694, 2-[5-Amino-6-oxo-2-(4-fluorophenyl)-1,6-dihydro-1-pyrimidinyl]-N-[1-(2-[5-phenyl-1,3,4-oxadiazolyl]carbonyl)-2-(S)-methylpropyl]acetamide] | 0.0248 µM |
| CC(C)[C@H](NC(=O)[C@@H]1CCCN1C(=O)[C@@H](NS(C)(=O)=O)C(C)C)C(=O)c1nnc(C(C)(C)c2ccccc2)o1 [ONO-PO-710, Methylsulfonyl-L-valyl-N-[1-(2-[5-(α,α-dimethylbenzyl)-1,3,4-oxadiazolyl]carbonyl)-2-(S)-methylpropyl]-L-prolinamide] | 0.00239 µM |
| CC(C)[C@H](NC(=O)Cn1c(-c2ccccc2)ncc(N)c1=O)C(=O)c1nnc(C(C)(C)c2ccccc2)o1 [ONO-PO-711, 2-[5-Amino-6-oxo-2-phenyl-1,6-dihydro-1-pyrimidinyl]-N-[1-(2-[5-(α,α-dimethylbenzyl)-1,3,4-oxadiazolyl]carbonyl)-2-(S)-methylpropyl]acetamide] | 0.00255 µM |
| CC(C)[C@H](NC(=O)Cn1c(-c2ccc(F)cc2)ncc(N)c1=O)C(=O)c1nnc(Cc2ccccc2)o1 [ONO-PO-703, 2-[5-Amino-6-oxo-2-(4-fluorophenyl)-1,6-dihydro-1-pyrimidinyl]-N-[1-(2-[5-benzyl-1,3,4-oxadiazolyl]carbonyl)-2-(S)-methylpropyl]acetamide] | 0.00225 µM |
| CC(C)[C@H](NC(=O)CN1C(=O)N[C@H](Cc2c[nH]c3ccccc23)C1=O)C(=O)c1nnc(C(C)(C)C)o1 [ONO-PO-723, 4-(R)-(3-Indolemethylene)-2,5-imidazolidinedione-N-[1-(2-[5-tert-butyl-1,3,4-oxadiazolyl]carbonyl)-2-(S)-methylpropyl]acetamide] | 0.163 µM |
| CC(C)[C@H](NC(=O)CN1C(=O)N[C@H](C(C)C)C1=O)C(=O)c1nnc(C(C)(C)c2ccccc2)o1 [ONO-PO-720, 4-(R)-Isopropyl-2,5-imidazolidinedione-N-[1-(2-[5-(α,α-dimethylbenzyl)-1,3,4-oxadiazolyl]carbonyl)-2-(S)-methylpropyl]acetamide] | 0.0259 µM |
| CC(C)[C@H](NC(=O)Cn1c(-c2ccccc2)cccc1=O)C(=O)c1nnc(C(C)(C)c2ccccc2)o1 [ONO-PO-726, 2-[6-Oxo-2-phenyl-1,6-dihydro-1-pyridinyl]-N-[1-(2-[5-(α,α-dimethylbenzyl)-1,3,4-oxadiazolyl]carbonyl)-2-(S)-methylpropyl]acetamide] | 0.59 µM |
| CC(C)[C@H](NC(=O)Cn1c(-c2ccccc2)nccc1=O)C(=O)c1nnc(C2(C)CC2)o1 [ONO-PO-735, 2-[6-Oxo-2-phenyl-1,6-dihydro-1-pyrimidinyl]-N-[1-(2-[5-(1-methylcyclopropyl)-1,3,4-oxadiazolyl]carbonyl)-2-(S)-methylpropyl]acetamide] | 0.0264 µM |
